These results are taken from patent US11608324B2, “Solid forms of fasoracetam” (The Children's Hospital of Philadelphia, priority 2018, dated 2023).

Series [1] can be described thus: Hygroscopicity (statement). In kind it is physicochemical.
Series [2] can be described thus: Solubility curve in ethyl acetate (Crystal16). As to conditions: FIG. 10. It is filed as physicochemical. The source says: FIG. 7 is the x-ray powder diffraction of the R-fasoracetam monohydrate Form I starting material used in this Example 1, and FIG. 8 is the corresponding DSC thermogram of that starting material. A solubility curve was constructed for the cocrystal in ethyl acetate with the results plotted in FIG. 10 (from the data collected in Example 1) using a Crystal16 device from Technobis Crystallization Systems. The samples were created from the cocrystal without adding any additional water or other constituents. The samples were heated at a rate of 1°/15 minutes.

Series [3] in a line: Thermogravimetric analysis (TGA), thermal stability. In kind it is physicochemical. How it is done: TGA measurements were carried out on a METTLER TOLEDO TGA/SDTA 851e. Samples were placed in open aluminum oxide crucible. All experiments were performed under nitrogen flow.
A TGA plot can be found at FIG. 6. The sample was equilibrated at 30.0° C. for five minutes prior to ramping. A heating rate of 5° C. per minute was used from 30.0° C. to 350.0° C. No significant weight loss was observed until temperatures greater than 180° C. were recorded.

Series [4] deals with metabotropic glutamate receptor (mGluR), all classes. As to conditions: Hirouchi M, et al. (2000); WO2017/044491; cited from earlier work.
For series [5] the following is noted: subjects having a genetic alteration in an mGluR network gene; cited from earlier work.

With `O=C1CC[C@H](C(=O)N2CCCCC2)N1` [R-fasoracetam anhydrate], the hygroscopicity result in series [1] was “hygroscopic”.
In the case of `Nc1ccc(C(=O)O)cc1.O=C1CC[C@H](C(=O)N2CCCCC2)N1` [R-fasoracetam:PABA cocrystal], the “solubility as compared with R-fasoracetam monohydrate Form I” value in series [2] is “approximately three-fold lower”. For the same molecule, the “thermal stability by TGA, stable up to” value in series [3] (TGA, FIG. 6) was “about 200 °C”. For the same molecule, the “temperature until which no significant weight loss was observed (TGA)” value in series [3] (heating rate 5° C. per minute from 30.0° C. to 350.0° C.) is “greater than 180 °C”.
Take `O=C1CC[C@H](C(=O)N2CCCCC2)N1` [fasoracetam]: the “activity against mGluRs in vitro” value in series [4] is reported as “nonselective activator against all classes of mGluRs”. For the same molecule, the “treatment outcome in ADHD” value in series [5] was “successfully treated”.
